PubChem BioAssay AID248 (DTP/NCI, 2004)
Values joined by “and” are separate entries in the source; they are usually repeats but may differ in a detail not shown here. Identical values can stand only once. Inconclusive results and toxic doses are left out. Rule as the data show it: active = T/C of 150% or more; inactive = T/C below 125%.

Test system: L1210 leukemia ip in BDF1 mice, survival T/C
Experiment: NCI In Vivo Anticancer Drug Screen. Data for tumor model L1210 Leukemia (intraperitoneal) in B6D2F1 (BDF1) mice
Conditions: endpoint: mean survival time, higher = longer survival
Procedure, shortened: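 Tumor was transplanted into mice, which were then dosed with test compound or vehicle alone. Survival was recorded for each group, and the treated figure was expressed relative to the control figure.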

[1] = dose: 100.0 mg/kg/injection, schedule: Q01DX009 (ip), vehicle: saline with Tween-80
[2] = dose: 100.0 mg/kg/injection, schedule: Q04DX002 (ip), vehicle: saline with Tween-80
[3] = dose: 200.0 mg/kg/injection, schedule: Q01DX009 (ip), vehicle: saline with Tween-80
[4] = dose: 200.0 mg/kg/injection, schedule: Q04DX002 (ip), vehicle: saline with Tween-80
[5] = dose: 400.0 mg/kg/injection, schedule: Q04DX002 (ip), vehicle: saline with Tween-80
[6] = dose: 100.0 mg/kg/injection, schedule: Q01DX009 (ip), vehicle: Klucel (hydroxypropylcellulose) (HPC)
[7] = dose: 200.0 mg/kg/injection, schedule: Q01DX009 (ip), vehicle: Klucel (hydroxypropylcellulose) (HPC)
[8] = dose: 100.0 mg/kg/injection, schedule: Q04DX003 (ip), vehicle: saline with Tween-80
[9] = dose: 200.0 mg/kg/injection, schedule: Q04DX003 (ip), vehicle: saline with Tween-80
[10] = dose: 400.0 mg/kg/injection, schedule: Q04DX003 (ip), vehicle: saline with Tween-80

Measured: T/C

CCN=C(N)c1ccc(NC(=O)c2ccc(C(=O)Nc3ccc(C(N)=NCC)cc3)cc2)cc1
inactive: dose: 1.0 mg/kg/injection, schedule: Q01DX Z (ip), vehicle: other 115 % of control | dose: 2.0 mg/kg/injection, schedule: Q01DX Z (ip), vehicle: other 91 % of control | dose: 8.0 mg/kg/injection, schedule: Q01DX Z (ip), vehicle: carboxymethylcellulose (CMC) 100 % of control

CCOC(=O)C(=Cc1csc2ccccc12)C(=O)OCC
inactive: dose: 100.0 mg/kg/injection, schedule: Q01DX001 (ip), vehicle: carboxymethylcellulose (CMC) 92 % of control | dose: 200.0 mg/kg/injection, schedule: Q01DX001 (ip), vehicle: carboxymethylcellulose (CMC) 94 % of control | dose: 400.0 mg/kg/injection, schedule: Q01DX001 (ip), vehicle: carboxymethylcellulose (CMC) 94 % of control

Nc1ccc(C(=O)NCCCC(=O)O)cc1
inactive: dose: 100.0 mg/kg/injection, schedule: Q01DX001 (ip), vehicle: saline 108 % of control | dose: 200.0 mg/kg/injection, schedule: Q01DX001 (ip), vehicle: saline 103 % of control | dose: 400.0 mg/kg/injection, schedule: Q01DX001 (ip), vehicle: saline 95 % of control

NC(=S)c1ccc(N)cc1
inactive: dose: 12.5 mg/kg/injection, schedule: Q04DX003 (ip), vehicle: saline 105 % of control | dose: 25.0 mg/kg/injection, schedule: Q04DX003 (ip), vehicle: saline 103 % of control | dose: 50.0 mg/kg/injection, schedule: Q04DX003 (ip), vehicle: saline 97 % of control and 102 % of control | dose: 75.0 mg/kg/injection, schedule: Q04DX003 (ip), vehicle: saline 106 % of control | dose: 115.0 mg/kg/injection, schedule: Q04DX003 (ip), vehicle: saline 97 % of control

O=C(CCCCNC(=O)C1CCCN1Sc1ccc([N+](=O)[O-])cc1[N+](=O)[O-])OCc1ccccc1 (stereo not given)
inactive: dose: 100.0 mg/kg/injection, schedule: Q04DX002 (ip), vehicle: Klucel (hydroxypropylcellulose) (HPC) 90 % of control | dose: 200.0 mg/kg/injection, schedule: Q04DX002 (ip), vehicle: Klucel (hydroxypropylcellulose) (HPC) 94 % of control | dose: 400.0 mg/kg/injection, schedule: Q04DX002 (ip), vehicle: Klucel (hydroxypropylcellulose) (HPC) 94 % of control

N#CCC(=O)N1CCc2ccccc2C1
inactive: [1] 97 % of control | [2] 94 % of control | [3] 97 % of control | [4] 105 % of control | [5] 101 % of control

O=C(O)c1c(O)c(-c2ccccc2)nc2ccccc12
inactive: dose: 25.0 mg/kg/injection, schedule: Q01DX001 (ip), vehicle: Klucel (hydroxypropylcellulose) (HPC) 90 % of control | dose: 50.0 mg/kg/injection, schedule: Q01DX001 (ip), vehicle: Klucel (hydroxypropylcellulose) (HPC) 102 % of control | dose: 50.0 mg/kg/injection, schedule: Q01DX009 (ip), vehicle: Klucel (hydroxypropylcellulose) (HPC) 101 % of control | dose: 100.0 mg/kg/injection, schedule: Q01DX001 (ip), vehicle: Klucel (hydroxypropylcellulose) (HPC) 86 % of control | [6] 100 % of control | dose: 100.0 mg/kg/injection, schedule: Q04DX003 (ip), vehicle: Klucel (hydroxypropylcellulose) (HPC) 98 % of control | [7] 103 % of control | dose: 200.0 mg/kg/injection, schedule: Q04DX003 (ip), vehicle: Klucel (hydroxypropylcellulose) (HPC) 100 % of control

CCOC(=O)COc1ccc(/C=C/c2ccnc3ccccc23)cc1
inactive: [6] 100 % of control | [7] 106 % of control | dose: 400.0 mg/kg/injection, schedule: Q01DX009 (ip), vehicle: Klucel (hydroxypropylcellulose) (HPC) 94 % of control

O=CC(O)C(O)C(Cl)C(O)CCl (stereo not given)
inactive: [2] 90 % of control | [4] 97 % of control | [5] 93 % of control

CC(=O)NC(C)Cc1ccc2c(c1)OCO2 (stereo not given)
inactive: [6] 102 % of control | [7] 107 % of control

CC(=O)C(C=NCCN=CC(C(C)=O)C(C)=O)C(C)=O.[Ni]
inactive: [2] 98 % of control | [4] 98 % of control

CC1OC(=O)C(=O)C1(C)C (stereo not given)
inactive: dose: 32.0 mg/kg/injection, schedule: Q01DX001 (ip), vehicle: carboxymethylcellulose (CMC) 100 % of control | dose: 62.5 mg/kg/injection, schedule: Q01DX001 (ip), vehicle: carboxymethylcellulose (CMC) 102 % of control | dose: 125.0 mg/kg/injection, schedule: Q01DX001 (ip), vehicle: carboxymethylcellulose (CMC) 93 % of control | dose: 250.0 mg/kg/injection, schedule: Q01DX001 (ip), vehicle: carboxymethylcellulose (CMC) 100 % of control | dose: 500.0 mg/kg/injection, schedule: Q01DX001 (ip), vehicle: carboxymethylcellulose (CMC) 107 % of control

CN(C)C(=S)[S][Sb]([S]C(=S)N(C)C)[c]1ccccc1
inactive: dose: 100.0 mg/kg/injection, schedule: Q01DX001 (ip), vehicle: steriod suspending solution 96 % of control | dose: 200.0 mg/kg/injection, schedule: Q01DX001 (ip), vehicle: steriod suspending solution 96 % of control

CC(=O)NCc1ccc(N2C(N)=NC(N)=NC2(C)C)cc1
inactive: dose: 75.0 mg/kg/injection, schedule: Q01DX009 (ip), vehicle: saline 92 % of control | dose: 150.0 mg/kg/injection, schedule: Q01DX009 (ip), vehicle: saline 87 % of control | dose: 300.0 mg/kg/injection, schedule: Q01DX009 (ip), vehicle: saline 90 % of control

O=C(Nc1ccc2ccccc2c1)c1ccc(Cl)cc1
inactive: [1] 104 % of control and 92 % of control | [2] 94 % of control and 97 % of control | [8] 97 % of control | [3] 97 % of control and 98 % of control | [4] 100 % of control and 101 % of control | [9] 101 % of control | dose: 400.0 mg/kg/injection, schedule: Q01DX009 (ip), vehicle: saline with Tween-80 95 % of control and 111 % of control | [5] 89 % of control and 90 % of control | [10] 97 % of control

Cc1cc(Cc2cc(C)c(C)c(C)c2C)c(C)c(C)c1C
inactive: dose: 100.0 mg/kg/injection, schedule: Q01DX001 (ip), vehicle: other 96 % of control | dose: 200.0 mg/kg/injection, schedule: Q01DX001 (ip), vehicle: other 95 % of control | dose: 400.0 mg/kg/injection, schedule: Q01DX001 (ip), vehicle: other 90 % of control

OCCN1CC1
inactive: dose: 1.0 mg/kg/injection, schedule: Q01DX009 (ip), vehicle: saline 92 % of control | dose: 1.56 mg/kg/injection, schedule: Q01DX009 (ip), vehicle: saline 100 % of control | dose: 2.3 mg/kg/injection, schedule: Q01DX009 (ip), vehicle: saline 96 % of control | dose: 3.12 mg/kg/injection, schedule: Q01DX009 (ip), vehicle: saline 120 % of control | dose: 6.25 mg/kg/injection, schedule: Q01DX009 (ip), vehicle: saline 94 % of control

O=NN(CCF)C(=O)Nc1ccccc1
active: dose: 18.0 mg/kg/injection, schedule: Q01DX001 (ip), vehicle: other 160 % of control

NNC(=O)CCNCCC(=O)NN
inactive: dose: 100.0 mg/kg/injection, schedule: Q04DX002 (ip), vehicle: saline + alcohol 94 % of control | dose: 200.0 mg/kg/injection, schedule: Q04DX002 (ip), vehicle: saline + alcohol 88 % of control

CCCNC1=C(C)C(=O)C2=C(C1=O)[C@H](COC(N)=O)[C@]1(OC)[C@@H]3N[C@@H]3CN21
inactive: dose: 2.9 mg/kg/injection, schedule: Q01DX001 (ip), vehicle: acetone 109 % of control | dose: 4.3 mg/kg/injection, schedule: Q01DX001 (ip), vehicle: acetone 117 % of control | dose: 4.5 mg/kg/injection, schedule: Q01DX009 (ip), vehicle: acetone 118 % of control | dose: 6.6 mg/kg/injection, schedule: Q01DX001 (ip), vehicle: saline 108 % of control | dose: 7.5 mg/kg/injection, schedule: Q01DX009 (ip), vehicle: acetone 86 % of control | dose: 9.9 mg/kg/injection, schedule: Q01DX001 (ip), vehicle: saline 101 % of control | dose: 15.0 mg/kg/injection, schedule: Q01DX001 (ip), vehicle: saline 110 % of control | dose: 22.0 mg/kg/injection, schedule: Q01DX001 (ip), vehicle: acetone 92 % of control | dose: 22.0 mg/kg/injection, schedule: Q01DX001 (ip), vehicle: saline 113 % of control
active: dose: 15.0 mg/kg/injection, schedule: Q01DX001 (ip), vehicle: acetone 165 % of control

CN1CCN(C(=O)C(c2ccccc2)C2(O)CCCC2)CC1 (stereo not given)
inactive: dose: 5.0 mg/kg/injection, schedule: Q01DX001 (ip), vehicle: saline 96 % of control | dose: 10.0 mg/kg/injection, schedule: Q01DX001 (ip), vehicle: saline 105 % of control

Cc1cccc(C(=O)CC(O)(C(F)(F)F)C(F)(F)F)n1
inactive: [8] 92 % of control | [9] 86 % of control | [10] 90 % of control
